# Measured values: PubChem BioAssay AID330 (DTP/NCI, 2004)
# Where “and” joins values, the source holds several entries; their conditions need not be identical. Identical values can stand only once. Toxic doses and inconclusive results are not listed.
# Tested on: P388 leukemia ip, CD2F1 mice, survival T/C
# Test: NCI In Vivo Anticancer Drug Screen. Data for tumor model P388 Leukemia (intraperitoneal) in CD2F1 (CDF1) mice
# Settings: endpoint: median survival time, higher = longer survival
# In short: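 Mice carrying the transplanted tumor received test compound or vehicle. Survival was recorded in each group, and the value is the treated-group measurement divided by that of the vehicle-treated control group.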
# [1] = dose: 25.0 mg/kg/injection, schedule: Q01DX009 (ip), vehicle: saline with Tween-80
# [2] = dose: 50.0 mg/kg/injection, schedule: Q01DX009 (ip), vehicle: saline with Tween-80
# [3] = dose: 100.0 mg/kg/injection, schedule: Q01DX009 (ip), vehicle: saline with Tween-80
# [4] = dose: 50.0 mg/kg/injection, schedule: Q04DX003 (ip), vehicle: saline with Tween-80
# [5] = dose: 100.0 mg/kg/injection, schedule: Q04DX003 (ip), vehicle: saline with Tween-80
# [6] = dose: 200.0 mg/kg/injection, schedule: Q04DX003 (ip), vehicle: saline with Tween-80
compound,measurement,setting,value
CN(C)c1ccc(C=C2C(=O)NC(=O)NC2=O)cc1,T/C,[1],118 % of control
same,T/C,[2],113 % of control
same,T/C,[3],116 % of control
same,T/C,"dose: 200.0 mg/kg/injection, schedule: Q01DX009 (ip), vehicle: saline with Tween-80",106 % of control
c1ccc2cc(N=NNc3ccc4ccccc4c3)ccc2c1,T/C,[2],122 % of control
same,T/C,[4],90 % of control
same,T/C,[3],95 % of control
same,T/C,[5],100 % of control
same,T/C,[6],109 % of control
O=C(CCl)NNC(=O)CCl,T/C,"dose: 12.5 mg/kg/injection, schedule: Q01DX009 (ip), vehicle: Klucel (hydroxypropylcellulose) (HPC)",117 % of control
N#Cc1c(-c2ccc(Cl)cc2)c(-c2ccc(Cl)cc2)nn(CCOC(=O)CCC(=O)O)c1=O,T/C,"dose: 3.13 mg/kg/injection, schedule: Q01DX005 (ip), vehicle: distilled water + Tween-80",100 % of control
same,T/C,"dose: 6.25 mg/kg/injection, schedule: Q01DX005 (ip), vehicle: distilled water + Tween-80",100 % of control
same,T/C,"dose: 12.5 mg/kg/injection, schedule: Q01DX005 (ip), vehicle: distilled water + Tween-80",105 % of control
same,T/C,"dose: 12.5 mg/kg/injection, schedule: Q01DX005 (ip), vehicle: saline",104 % of control
same,T/C,"dose: 12.5 mg/kg/injection, schedule: Q01DX005 (ip), vehicle: sodium bicarbonate",103 % of control
same,T/C,"dose: 12.5 mg/kg/injection, schedule: Q04DX002 (ip), vehicle: distilled water + Tween-80",106 % of control
same,T/C,"dose: 25.0 mg/kg/injection, schedule: Q01DX005 (ip), vehicle: distilled water + Tween-80",114 % of control and 117 % of control
same,T/C,"dose: 25.0 mg/kg/injection, schedule: Q01DX005 (ip), vehicle: saline",112 % of control
same,T/C,"dose: 25.0 mg/kg/injection, schedule: Q01DX005 (ip), vehicle: sodium bicarbonate",112 % of control
same,T/C,"dose: 25.0 mg/kg/injection, schedule: Q04DX002 (ip), vehicle: distilled water + Tween-80",105 % of control and 113 % of control
same,T/C,"dose: 50.0 mg/kg/injection, schedule: Q01DX005 (ip), vehicle: distilled water + Tween-80",172 % of control and 184 % of control
same,T/C,"dose: 100.0 mg/kg/injection, schedule: Q01DX005 (ip), vehicle: saline",180 % of control
same,T/C,"dose: 100.0 mg/kg/injection, schedule: Q01DX005 (ip), vehicle: sodium bicarbonate",202 % of control
same,T/C,"dose: 100.0 mg/kg/injection, schedule: Q04DX002 (ip), vehicle: distilled water + Tween-80",115 % of control and 92 % of control
Cn1c(=O)c2c(c3ccccc31)Oc1oc3ccc4ccccc4c3c(=O)c1C2,T/C,"dose: 12.5 mg/kg/injection, schedule: Q01DX009 (ip), vehicle: saline with Tween-80",92 % of control
same,T/C,[1],90 % of control
O=C(Nc1ccccc1)c1c(O)[nH]c(=O)[nH]c1=O,T/C,"dose: 100.0 mg/kg/injection, schedule: Q01DX005 (ip), vehicle: saline with Tween-80",163 % of control and 207 % of control
same,T/C,"dose: 200.0 mg/kg/injection, schedule: Q01DX005 (ip), vehicle: saline with Tween-80",204 % of control
COc1cc(C(C)=O)cc([N+](=O)[O-])c1O,T/C,[4],100 % of control
same,T/C,[5],100 % of control
same,T/C,[6],100 % of control
CNC(=O)C(NC(=O)C(NC(=O)c1c2nc3c(C(=O)NC(C(=O)NC(C(=O)NC)C(C)C)C(C)O)ccc(C)c3oc-2c(C)c(=O)c1N)C(C)O)C(C)C (configuration not stated),T/C,"dose: 0.05 mg/kg/injection, schedule: Q01DX009 (ip), vehicle: water",101 % of control
same,T/C,"dose: 0.1 mg/kg/injection, schedule: Q01DX009 (ip), vehicle: water",110 % of control
same,T/C,"dose: 0.2 mg/kg/injection, schedule: Q01DX009 (ip), vehicle: water",100 % of control
same,T/C,"dose: 0.4 mg/kg/injection, schedule: Q01DX009 (ip), vehicle: water",99 % of control
same,T/C,"dose: 0.8 mg/kg/injection, schedule: Q01DX009 (ip), vehicle: water",108 % of control
same,T/C,"dose: 1.6 mg/kg/injection, schedule: Q01DX009 (ip), vehicle: water",99 % of control and 90 % of control
same,T/C,"dose: 3.2 mg/kg/injection, schedule: Q01DX009 (ip), vehicle: water",97 % of control
same,T/C,"dose: 6.4 mg/kg/injection, schedule: Q01DX009 (ip), vehicle: water",97 % of control
same,T/C,"dose: 12.8 mg/kg/injection, schedule: Q01DX009 (ip), vehicle: water",99 % of control
C[CH2][Sn]([CH2]C)([O]P(=O)(C[Si](C)(C)C)c1ccccc1)[O]P(=O)(C[Si](C)(C)C)c1ccccc1 (configuration not stated),T/C,"dose: 30.0 mg/kg/injection, schedule: Q01DX005 (ip), vehicle: saline with Tween-80",115 % of control
same,T/C,"dose: 120.0 mg/kg/injection, schedule: Q01DX005 (ip), vehicle: saline with Tween-80",151 % of control
